# Data taken from publication PMC12775124, “CUL4A-DDB1-DCAF10 is an N-recognin for N-terminally acetylated Src kinases” (Nature Communications, 2026).
# Assays:
# DCAF10 = assay: Peptide pull-down with quantitative MS, HeLa lysate, DCAF10; format: binding, human (HeLa); conditions: for DCAF10 binding of swap peptide vs its WT (in words): direct comparisons Ac-Lyn vs Ac-Lyn^swap and Ac-THOC7 vs Ac-THOC7^swap
# GST-DCAF10 = assay: Streptavidin pull-down of GST-DCAF10 with biotinylated Nt-peptides; format: binding, human; conditions: 0.5 µM GST-DCAF10, 5 µM peptide, 1 h RT; WB
# Protocol: To confirm direct interactions between peptides and DCAF10, we performed pull-down assays using bead-bound Nt-peptide variants incubated with purified full-length GST-DCAF10 or GST as a negative control (Fig. 2m–p and Supplementary Fig. 4a).
# 230 of 1:100), and desalted/concentrated on C18 reversed phase stage tips as previously
# MS measurements settings are stated in MS measurements and raw file
# BL21(DE3) cells (Thermo Fisher Scientific,
# 240 agar) plate containing 100 μg/mL ampicillin and 34 μg/mL chloramphenicol, then
# Terrific broth (TB) medium (24 g/L yeast extract,
# 243 20 g/L tryptone, glycerol 4 mL/L, 100 mL/L phosphate buffer containing 0.17 M KH2PO4
# 244 and 0.72 M K2HPO4) was used to prepare a 1:100 dilution of the starter culture, and OD600
# At OD600 = 1, protein induction was initiated by adding 1 mM
# 247 day, pellets were homogenized and lysed in glycerol lysis buffer (20 mM Tris-HCl pH
# Lysis was performed on ice for 30 min, followed by
# 250 sonication (7 × 20 sec pulses with 20 sec breaks on ice) using a Bandelin sonoplus
# Lysates were centrifuged at 4°C for 1 h
# 253 medium culture was lysed in 20 mL of supernatant (collected in 20 × 1 mL tubes). GST
# 255 agarose bead; Thermo Fisher Scientific, Waltham, MA, USA). For each 1 mL of
# 100 μL of GST magnetic beads
# 257 were washed twice with 500 μL of wash buffer (125 mM Tris-HCl pH 7.4, 150 mM NaCl,
# The lysis supernatant was diluted 1:1 with
# 259 wash buffer, and incubated with the beads on an end-over-end rotator for 1 h at 25°C.
# 260 After incubation, the supernatant was removed, and the beads were washed twice with
# Protein elution was then performed by incubating
# 263 pH 7.4, 250 mM NaCl, 0.3% Triton X-100) for 30 min at 25°C on an end-over-end rotator.
# 265 under the same conditions. Elution fractions were pooled and concentrated by
# 266 centrifugation (4°C, 25 min, 4500 rpm) using a 30 kDa cut-off concentrator (Merck
# 267 Millipore, #UFC803008, Darmstadt, Germany). Purified proteins were analyzed by
# 268 colloidal Coomassie stain, WB and MS.
# 270 Streptavidin pull-downs with GST-DCAF10 and biotinylated peptides
# 271 Streptavidin magnetic beads (DynabeadsTM MyOneTM Streptavidin T1; Thermo Fisher
# 272 Scientific, Waltham, MA, USA) were washed twice with 500 μL of wash buffer (125 mM
# 273 Tris-HCl pH 7.4, 150 mM NaCl, 0.1% Triton X-100). An excess of peptides was added
# 274 (to ensure full occupancy of the beads) and incubated for 30 min at RT. After peptide
# 275 binding, beads were again washed three times with 500 μL of wash buffer. The pull-down
# 276 was then performed in a 100 μL reaction volume with final concentrations of 0.5 µM
# 277 GST-DCAF10 and 5 µM peptide. GST-DCAF10 or GST alone (as a control) was added
# 278 to the peptide-streptavidin beads and incubated on a rotator for 1 h at RT. After incubation,
# 279 the beads were washed three times with 500 μL of wash buffer and resuspended in 4x
# 280 Laemmli buffer. 1/5 of the input (GST-DCAF10 and GST) and 9/10 of the sample were
# 281 loaded on a 10% SDS gel and blotted with anti-GST and anti-DCAF10 antibodies, while
# 282 1/10 was loaded on a 15% SDS gel and blotted with anti-streptavidin antibody to assess
# 283 equal peptide loading.
# 285 Streptavidin Sepharose High Performance, GE Healthcare, Chicago, IL, USA) were used.
# 286 After washing with a high salt wash buffer without detergents (125 mM Tris-HCl pH 7.4,
# 287 400 mM NaCl), an excess of peptides was added and incubated for 30 min at RT. For each
# 288 reaction, 10 µL of slurry beads were used. After peptide-binding, beads were again
# 289 washed once with a high salt wash buffer without detergents and twice with binding buffer
# 290 without detergents (125 mM Tris-HCl pH 7.4, 150 mM NaCl). The pull-downs were
# 291 performed in a 100 μL reaction volume in binding buffer without detergents with a final
# 292 concentration of 0.5 µM GST-DCAF10 and incubated rotating for 1 h at RT. After
# 293 incubation, the beads were washed five times with 500 μL of high salt wash buffer without […]
sequence,measurement,setting,value
"GAVTDDEVIRKK [Ac-THOC7, Nt-peptide of THOC7, Nt-acetylated]",DCAF10 binding (in words),"DCAF10; HeLa lysate, Nt-Ac vs Nt-free peptides",did not bind DCAF10 significantly
same,Binding to GST-DCAF10 (in words),GST-DCAF10,neither Nt-acetylated nor Nt-free THOC7 peptides or GST alone bound DCAF10
"GCITDDGKDSKK [Ac-Lyn^swap, Lyn peptide carrying Thr5-Asp6-Asp7 of THOC7]","log₂ difference Ac-Lyn^swap vs Ac-THOC7^swap, DCAF10","DCAF10; HeLa lysate, n = 3",−1.23
same,DCAF10 binding of swap peptide vs its WT (in words),DCAF10; HeLa lysate,significantly reduced
"GAVKSKEVIRKK [Ac-THOC7^swap, THOC7 peptide carrying Lys5-Ser6-Lys7 of Lyn]",Reversal of preference after swapping positions 5–7,DCAF10; Ac-Lyn^swap vs Ac-THOC7^swap relative to WT comparison,~ 133 fold
same,DCAF10 binding of swap peptide vs its WT (in words),DCAF10; HeLa lysate,increased binding
"ACIKSKGKDSKK [Ac-Lyn^G2A, Ac-Ala mutant Nt-peptide of Lyn]","DCAF10 interaction, fold lower relative to Ac-Gly peptide","DCAF10; Ac-Ala (Ac-Lyn^G2A) vs Ac-Gly (Ac-Lyn^WT), HeLa lysate",15 fold
same,DCAF10 binding of Nt-mutant peptides (in words),DCAF10; n = 3 replicates,only identified in 2 of 3 replicates
"GSNKSKPKDAKK [Myr-Src, Nt-peptide of Src, N-myristoylated]","DCAF10 binding, Nt-Ac vs Nt-Myr (in words)",DCAF10; HeLa lysate,no detectable DCAF10 binding
